Tests used:
ERK1 [1] = target: T1, ERK1 (Homo sapiens, UniProt P27361); test: competition of ATP acyl phosphate probe labelling by […] free ATP, SILAC LC-MS/MS; assay type: cell-based; parameters: gene MAPK3; native endogenous ERK1 in lung cancer cell proteomes
ERK2 = target: T2, ERK2 (Homo sapiens, UniProt P28482); test: as above; assay type: cell-based
T2 construct: gene MAPK1; native endogenous ERK2 in lung cancer cell proteomes

ERK1 [2] = target: T1, ERK1; test: competitive ATP acyl phosphate activity-based profiling, SILAC LC-MS/MS in A549 lysate; assay type: biochemical; parameters: gene MAPK3; native endogenous ERK1 in A549 soluble proteome

T1 sequence (P27361 2-379): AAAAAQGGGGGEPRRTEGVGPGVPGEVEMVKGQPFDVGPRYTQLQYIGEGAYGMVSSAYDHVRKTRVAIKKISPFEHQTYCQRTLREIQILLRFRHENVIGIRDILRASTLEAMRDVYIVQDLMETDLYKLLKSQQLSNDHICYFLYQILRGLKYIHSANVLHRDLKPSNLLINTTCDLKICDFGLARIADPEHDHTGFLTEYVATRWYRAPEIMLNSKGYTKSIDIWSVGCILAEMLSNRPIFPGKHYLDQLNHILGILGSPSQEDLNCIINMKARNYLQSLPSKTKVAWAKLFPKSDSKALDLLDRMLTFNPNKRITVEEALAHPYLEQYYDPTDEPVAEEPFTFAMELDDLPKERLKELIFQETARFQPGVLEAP
T2 sequence (P28482 2-360): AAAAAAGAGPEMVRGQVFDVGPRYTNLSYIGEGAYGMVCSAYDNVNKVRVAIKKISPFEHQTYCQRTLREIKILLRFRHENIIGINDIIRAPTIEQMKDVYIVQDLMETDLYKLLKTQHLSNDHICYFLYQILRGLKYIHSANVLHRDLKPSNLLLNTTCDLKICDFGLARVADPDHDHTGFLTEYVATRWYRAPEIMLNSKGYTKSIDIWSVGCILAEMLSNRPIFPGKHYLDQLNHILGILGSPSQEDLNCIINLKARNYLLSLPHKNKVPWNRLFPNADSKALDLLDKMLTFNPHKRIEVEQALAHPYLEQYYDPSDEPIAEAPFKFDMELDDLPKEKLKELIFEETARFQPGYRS

Row | Compound | competition of ATP acyl phosphate probe labelling by 1 mM free ATP, SILAC LC-MS/ (ERK1 [1]) | competition of ATP acyl phosphate probe labelling by 1 mM free ATP, SILAC LC-MS/ (ERK2) | IC50 (ERK1 [2]) [nM]
1 | Nc1ncnc2c1ncn2[C@@H]1O[C@H](COP(=O)(O)OP(=O)(O)OP(=O)(O)O)[C@@H](O)[C@H]1O [ATP] | both ERK1 and ERK2 probe-modified peptides were highly competed with ATP treatment | both ERK1 and ERK2 probe-modified peptides were highly competed with ATP treatment | 
2 | CC(C)Nc1cc(-c2c[nH]c(C(=O)N[C@H](CO)c3cccc(Cl)c3)c2)c(Cl)cn1 [BVD-523] |  |  | 15
